Test results as given in ChEMBL document CHEMBL1146667, “Benzodiazepine-based selective inhibitors of mitochondrial F1F0 ATP hydrolase” (Bioorg Med Chem Lett, 2004).

Columns and labels:
[1] = target: T1, Mitochondrial complex V; ATP synthase (Bos taurus, UniProt P00829+P05630+P05631+P05632); experiment: Inhibitory activity against bovine mitochondrial F1F0-ATP hydrolase; type: protein-complex assay
[2] = target: T1, Mitochondrial complex V; ATP synthase; experiment: Inhibitory activity against bovine mitochondrial F1F0-ATP synthase; type: protein-complex assay
[3] = target: T2, Cytochrome P450 2C9 (Homo sapiens, UniProt P11712); experiment: Inhibitory activity against cytochrome P450 2C9; type: ADME
[4] = target: T2, Cytochrome P450 2C9; experiment: Inhibitory activity against ccytochrome P450 2C9

T1 sequence (P05632 whole entry): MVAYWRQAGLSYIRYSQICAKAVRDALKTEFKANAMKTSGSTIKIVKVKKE
T1 sequence (P00829 whole entry): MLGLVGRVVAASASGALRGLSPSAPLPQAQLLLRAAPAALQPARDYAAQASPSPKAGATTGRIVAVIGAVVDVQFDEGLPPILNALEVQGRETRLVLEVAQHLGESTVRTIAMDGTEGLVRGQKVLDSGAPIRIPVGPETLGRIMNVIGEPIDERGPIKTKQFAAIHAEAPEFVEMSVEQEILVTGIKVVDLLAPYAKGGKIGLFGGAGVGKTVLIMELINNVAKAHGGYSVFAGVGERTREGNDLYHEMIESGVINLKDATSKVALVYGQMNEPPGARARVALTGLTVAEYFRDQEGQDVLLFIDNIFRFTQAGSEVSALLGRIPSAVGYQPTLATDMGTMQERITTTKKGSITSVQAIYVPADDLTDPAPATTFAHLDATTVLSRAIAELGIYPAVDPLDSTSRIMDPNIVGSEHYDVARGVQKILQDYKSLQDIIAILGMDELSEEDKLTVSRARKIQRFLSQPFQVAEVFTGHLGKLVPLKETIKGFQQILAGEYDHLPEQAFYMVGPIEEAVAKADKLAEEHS
T1 sequence (P05631 whole entry): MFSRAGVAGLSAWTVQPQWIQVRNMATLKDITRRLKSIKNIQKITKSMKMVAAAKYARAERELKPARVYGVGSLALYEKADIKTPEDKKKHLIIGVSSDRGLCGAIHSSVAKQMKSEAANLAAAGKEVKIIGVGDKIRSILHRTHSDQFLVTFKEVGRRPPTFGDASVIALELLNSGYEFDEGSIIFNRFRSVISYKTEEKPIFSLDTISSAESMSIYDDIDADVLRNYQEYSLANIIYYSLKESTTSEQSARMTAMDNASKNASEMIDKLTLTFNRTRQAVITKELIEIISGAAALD
T1 sequence (P05630 whole entry): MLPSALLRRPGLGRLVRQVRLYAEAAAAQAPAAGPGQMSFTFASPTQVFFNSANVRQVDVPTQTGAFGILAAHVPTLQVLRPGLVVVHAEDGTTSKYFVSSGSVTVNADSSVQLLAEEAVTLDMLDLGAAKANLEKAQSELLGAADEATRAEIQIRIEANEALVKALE
T2 sequence (P11712 whole entry): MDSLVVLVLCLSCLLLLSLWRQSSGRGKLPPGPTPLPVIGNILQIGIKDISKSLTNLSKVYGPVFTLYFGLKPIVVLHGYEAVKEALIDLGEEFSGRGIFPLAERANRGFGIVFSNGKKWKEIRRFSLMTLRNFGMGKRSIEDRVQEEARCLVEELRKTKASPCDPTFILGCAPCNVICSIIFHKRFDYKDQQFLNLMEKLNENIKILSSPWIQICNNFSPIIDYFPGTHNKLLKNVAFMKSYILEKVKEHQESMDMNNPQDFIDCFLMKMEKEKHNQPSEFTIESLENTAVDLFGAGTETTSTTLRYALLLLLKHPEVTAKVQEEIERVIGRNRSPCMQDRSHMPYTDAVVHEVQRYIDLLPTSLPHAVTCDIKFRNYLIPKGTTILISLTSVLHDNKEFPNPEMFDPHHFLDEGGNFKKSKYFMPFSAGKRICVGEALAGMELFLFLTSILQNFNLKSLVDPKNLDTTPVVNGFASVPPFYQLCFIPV

| Compound | IC50 [1] [nM] | IC50 [2] [nM] | IC50 [3] [nM] | IC50 [4] [nM] |
| --- | --- | --- | --- | --- |
| Cc1nc(CN2c3ccccc3CN(S(=O)(=O)c3ccc(F)cc3)CC2CCc2ccccc2)c[nH]1 (centres undefined) | 9620 | > 30000 |  |  |
| O=S(=O)(c1cccs1)N1Cc2ccccc2N(Cc2cnc[nH]2)C(CCc2ccccc2)C1 (centres undefined) | 636 | > 30000 |  |  |
| O=S(=O)(c1ccc(F)cc1)N1Cc2ccccc2N(Cc2c[nH]cn2)C(CCc2ccccc2)C1 (centres undefined) | 221 | > 30000 |  |  |
| CC(=O)Nc1ccc(S(=O)(=O)N2Cc3ccccc3N(Cc3cnc[nH]3)C(CCc3ccccc3)C2)cc1 (centres undefined) | 2980 | > 30000 |  |  |
| O=S(=O)(c1ccccc1)N1Cc2ccccc2N(Cc2cnc[nH]2)C(CCc2ccccc2)C1 (centres undefined) | 282 | > 30000 |  |  |
| Cc1nc[nH]c1CN1c2ccccc2CN(S(=O)(=O)c2ccc(F)cc2)CC1CCc1ccccc1 (centres undefined) | 151 | > 30000 |  |  |
| Cc1[nH]cnc1CN1c2ccccc2CN(S(=O)(=O)c2ccc(C(C)(C)C)cc2)CC1CCc1ccccc1 (centres undefined) | 77 | > 30000 | 3000 |  |
| N#Cc1ccc(S(=O)(=O)N2Cc3ccccc3N(Cc3cnc[nH]3)C(CCc3ccccc3)C2)cc1 (centres undefined) | 255 | > 30000 |  |  |
| O=S(=O)(c1ccc(O)cc1)N1Cc2ccccc2N(Cc2cnc[nH]2)C(CCc2ccccc2)C1 (centres undefined) | 667 | > 30000 |  |  |
| CC(C)(C)c1ccc(S(=O)(=O)N2Cc3ccccc3N(Cc3c[nH]cn3)C(CCc3ccccc3)C2)cc1 (centres undefined) | 8 | > 30000 |  | 38 |
| N#Cc1ccc(S(=O)(=O)N2Cc3ccccc3N(Cc3c[nH]cn3)C(CCc3ccccc3)C2)c(Cl)c1 (centres undefined) | 939 | > 30000 |  |  |
| O=S(=O)(c1cccc2ccccc12)N1Cc2ccccc2N(Cc2cnc[nH]2)C(CCc2ccccc2)C1 (centres undefined) | 338 | > 30000 |  |  |
| Cc1nc[nH]c1CN1c2ccccc2CN(S(=O)(=O)c2ccc(Cl)c(Cl)c2)CC1CCc1ccccc1 (centres undefined) | 22 | > 30000 | 2000 |  |
| CC(C)(C)c1ccc(CN2Cc3ccccc3N(Cc3cnc[nH]3)C(CCc3ccccc3)C2)cc1 (centres undefined) | 2140 | > 30000 |  |  |
| CC(C)(C)c1ccc(S(=O)(=O)N2Cc3ccccc3N(Cc3ncc[nH]3)C(CCc3ccccc3)C2)cc1 (centres undefined) | > 10000 | > 30000 |  |  |

The next lines start with results.

| IC50 [1] [nM] | IC50 [2] [nM] | IC50 [3] [nM] | Compound | IC50 [4] [nM] |
| --- | --- | --- | --- | --- |
| 423 | > 30000 |  | O=[N+]([O-])c1cccc(S(=O)(=O)N2Cc3ccccc3N(Cc3cnc[nH]3)C(CCc3ccccc3)C2)c1 (centres undefined) |  |
| 77 | > 30000 |  | O=S(=O)(N1Cc2ccccc2N(Cc2c[nH]cn2)C(CCc2ccccc2)C1)C(F)(F)F (centres undefined) |  |
| 1780 | > 30000 |  | O=S(=O)(c1cccc2nonc12)N1Cc2ccccc2N(Cc2cnc[nH]2)C(CCc2ccccc2)C1 (centres undefined) |  |
| 2410 | > 30000 |  | O=S(=O)(Cc1ccccc1)N1Cc2ccccc2N(Cc2c[nH]cn2)C(CCc2ccccc2)C1 (centres undefined) |  |
| 158 | > 30000 |  | O=S(=O)(c1cc(Cl)ccc1Cl)N1Cc2ccccc2N(Cc2cnc[nH]2)C(CCc2ccccc2)C1 (centres undefined) |  |
| 2930 | > 30000 |  | O=S(=O)(c1cccc2cccnc12)N1Cc2ccccc2N(Cc2c[nH]cn2)C(CCc2ccccc2)C1 (centres undefined) |  |
| 2350 | > 30000 |  | Cc1nc[nH]c1CN1c2ccccc2CN(Cc2ccc(C(C)(C)C)cc2)CC1CCc1ccccc1 (centres undefined) |  |
| 77 | > 30000 |  | COc1ccc(S(=O)(=O)N2Cc3ccccc3N(Cc3c[nH]cn3)C(CCc3ccccc3)C2)cc1 (centres undefined) |  |
